Assay results from patent publication US12691114B2, “Compositions for inhibition of herpesviruses” (The Medical College of Wisconsin, Inc., priority 2020, dated 2026).

Experiments:
[1] = tested on: HSV2 clinical isolate; assay: Plaque reduction assay, HSV2 in Vero cells; assay type: cell-based, Human Herpesvirus 2; settings: plaque reduction
Source text: Viruses and antiviral assays: A recombinant pp28-luciferase Towne HCMV strain expressing luciferase under the control of the UL99 (pp28) late promoter was reported to provide a highly-sensitive and reproducible reporter for drug screening^20. A GCV-resistant HCMV pp28-luciferase that contains a C607Y mutation in UL97 was reported^37. The HCMV TB40 strain was obtained from ATCC (VR-1578). Clinical isolates of Human Herpesvirus 1 and 2 (HSV1, HSV2) were collected from the Johns Hopkins Microbiology laboratory without identifiers that could link them to a specific patient. Mouse CMV (MCMV) Smith strain (ATCC VR-1399) was used for infection of MEFs.
Plaque reduction assay: HFFs were seeded into 12-well plates (2×10^5 cells/well) and infected with HCMV TB40 at approximately 100 plaques/well. After 90 min, media were aspirated, and DMEM containing 0.5% carboxymethyl-cellulose (CMC), 4% fetal bovine serum (FBS), and drugs were added into duplicate wells. Following incubation at 37° C. for 10-12 days the overlay was removed, and plaques were counted after crystal violet staining. For HSV1 and HSV2 replication in Vero cells, the adsorption time was 60 min and plaques were counted after 36 h. Plaque assays in MEFs were completed after 3 days.
Inhibition of other herpesviruses: Inhibition of herpes simplex 1 and 2 (HSV1, HSV2), Epstein Barr virus (EBV) and mouse CMV (MCMV) was tested with the five compounds. Plaque reductions assays were used for HSV1, HSV2 and MCMV. Inhibition of lytic EBV replication was measured by real-time PCR in AKATA cells following IgG induction. Only MLS8554 was active against HSV1, HSV2 and MCMV (Table 2).

[2] = tested on: MEFs; assay: Toxicity to MEFs; assay type: cell-based, mouse
[3] = tested on: HCMV; assay: Drug combination of GCV and 2955 by plaque assay, Bliss model; assay type: cell-based, human cytomegalovirus; settings: Human betaherpesvirus 5; combination experiment with GCV, plaque assay; read-out: EC50 (μM) of Compound 2
Procedure: Drug combination and analysis: These experiments were performed as previously reported^40. The combination of GCV and each compound was tested using the pp28-luciferase. Briefly, 2×10^6 HFFs/plate were seeded in 96-well plates and infected with the pp28-luciferase Towne HCMV strain (MOI=1). First, a dose response curve was generated for each drug individually to determine its EC50. Then, drugs were combined at twice their EC50, diluted in DMEM with 4% FBS, followed by serial dilution and added together after infection. Luciferase activity of the combination and each drug individually was quantified at 72 hpi. The combination of letermovir and each of the new compounds was tested by the plaque assay using TB40. The same principle applied in this assay for the drug combination effect, and plaques were counted at 8 dpi. The Bliss model was used to calculate the effect of each drug combination on pp28-luciferase activity and plaque reduction. […]
Pattern of drug combination with GCV and letermovir: The effect of each compound alone or in combination with GCV or letermovir was tested in HCMV-infected HFFs. […] For letermovir and its combination with each of the five compounds the EC50 was determined based on plaque assay. […] All other combinations and Bliss coefficients were measured by pp28- luciferase.

| Compound | activity against HSV2, in words [1] | EC50 ([1]; Vero cells, NA = Not active, read-out: EC50—HSV2-C1) | concentration at which toxicity to MEFs was observed [2] | EC50 [3] |
| --- | --- | --- | --- | --- |
| CCc1ccc(NC(=O)[C@H](Cc2c[nH]c3ccccc23)NC(=O)[C@@H]2Cc3ccccc3CN2)cc1 [MLS8554] | active | 1.3 ± 0.1 µM |  |  |
| CC(C)NC(=O)C1CCN(C(=O)c2cc3sccc3n2Cc2ccc(Cl)cc2)CC1 [NCGC2955, 1-(4-(4-chlorobenzyl)-4H-thieno[3,2-b]pyrrole-5-carbonyl)-N-isopropylpiperidine-4-carboxamide] |  |  | ≥ 10 µM | 1.51 ± 0.03 µM |
